From patent US8519004B2 (Repros Therapeutics Inc., priority 2005, dated 2013)
Where a name gives a salt, the structure may show the parent alone.

Tests used:
serum cholesterol = assay: Serum cholesterol in male baboons; type: in vivo; conditions: 1.5 mg/kg for 12 days
From the text: (§1) The samples analyzed were sera taken on the day of first treatment before being given test article (day 0), after 12 days of treatment (day 12) and 7 days after the last treatment (end or wash-out).

[1] = Clinical chemistry and hematology parameters in male baboons; type: in vivo; conditions: for serum glucose: change with treatment; for ALT/SGPT: changes over the treatment period / end of the study; for serum carbon dioxide: day 12; for serum anion gap: day 12 and washout; for BUN and BUN/creatinine: during the study
From the text: as §1

serum LH and FSH = conditions: during treatment
Method: (§2) Half of the men in each of the Androxal™ and placebo arms were randomized into cohorts that underwent in-clinic sessions on days 1 and 14 to determine pharmacokinetic parameters for Androxal™ as well as cyclical changes in testosterone. The placebo and Androxal™ doses were administered in a double blind fashion. The Androgel® cream was administered in an open label fashion. Half of the Androgel® patients underwent in-clinic sessions similar to the other patients in the study. Following the two week drug exposure patients were followed for an additional seven to ten days to determine the status of their testosterone levels.

[2] = 50 mg dose; placebo group ratio 1.07
Method: as §2

serum testosterone = assay: Serum testosterone in male baboons given Clomid, Enclomid or Zuclomid; type: in vivo; conditions: between day 12 and day 18 (washout)
From the text: as §1

[3] = following a single dose; cited from earlier work

Method for serum total testosterone: as §2

Row | SMILES | increase in serum cholesterol levels (serum cholesterol) | serum glucose [1] | ALT/SGPT [1] | serum carbon dioxide [1] | serum anion gap [1] | BUN and BUN/creatinine [1] | serum levels of FSH (serum LH and FSH) | serum levels of LH (serum LH and FSH) | serum total testosterone in the follow-up period (serum total testosterone; 7-10 days after cessation of daily oral treatment) | changes in testosterone from baseline testosterone levels (serum total testosterone; all doses) | serum total testosterone in follow-up, highest dose compared to the high dose of AndroGel 1% (serum total testosterone; follow-up period, p=0.017, t-test) | eosinophil count ([1]; 1.5 mg/kg for 12 days) | lymphocyte count ([1]; 1.5 mg/kg for 12 days) | red blood cell population ([1]; 1.5 mg/kg for 12 days) | serum creatinine ([1]; between day 0 and Day 12) | percent of granulocytes in the blood ([1]; very strong after the 7-day washout period) | DHT/TT ratio [2] | change in total serum testosterone after cessation of treatment (serum testosterone) | duration of residual blood levels [3]
1 | CCN(CC)CCOc1ccc(C(=C(Cl)c2ccccc2)c2ccccc2)cc1 [Clomid, clomiphene citrate] | slight increase | within the normal range | out of range low | higher than reference values | lower values than the Enclomid group | altered | – | – | – | – | – | – | – | – | – | – | – | – | –
2 | CCN(CC)CCOc1ccc(/C(=C(\Cl)c2ccccc2)c2ccccc2)cc1 [Enclomid, trans-clomiphene] | – | – | within the normal range | – | raised this parameter towards normal values | altered | statistically increase | statistically significant increase | remained high | statistically significant changes in testosterone | significantly higher | raising the counts of lymphocytes and eosinophiles | increase in lymphocyte count | substantive effects on the red blood cell population | no differences between serum creatinine values | lowering the percent of granulocytes in the blood | 0.83 | significant drop in the level of total serum testosterone | –
3 | CCN(CC)CCOc1ccc(/C(=C(/Cl)c2ccccc2)c2ccccc2)cc1 [Zuclomid, cis-clomiphene] | – | within the normal range | within the normal range | higher than reference values | lower values than the Enclomid group | – | – | – | – | – | – | – | – | substantive effects on the red blood cell population | – | – | – | – | in excess of one month
